# US8426598B2, “N-heterocyclic M1 receptor positive allosteric modulators” (Merck, Sharp & Dohme, Corp., priority 2008, dated 2013)
# Molecular target: T1, acetylcholine muscarinic M1 receptor (CHOnfat/hM1 cells) (Homo sapiens, UniProt P11229)
# T1 construct: expressed in transfected cells; host or cells: CHOnfat cells (CHO, Geneticin selection)
# T1 sequence (P11229 1-460): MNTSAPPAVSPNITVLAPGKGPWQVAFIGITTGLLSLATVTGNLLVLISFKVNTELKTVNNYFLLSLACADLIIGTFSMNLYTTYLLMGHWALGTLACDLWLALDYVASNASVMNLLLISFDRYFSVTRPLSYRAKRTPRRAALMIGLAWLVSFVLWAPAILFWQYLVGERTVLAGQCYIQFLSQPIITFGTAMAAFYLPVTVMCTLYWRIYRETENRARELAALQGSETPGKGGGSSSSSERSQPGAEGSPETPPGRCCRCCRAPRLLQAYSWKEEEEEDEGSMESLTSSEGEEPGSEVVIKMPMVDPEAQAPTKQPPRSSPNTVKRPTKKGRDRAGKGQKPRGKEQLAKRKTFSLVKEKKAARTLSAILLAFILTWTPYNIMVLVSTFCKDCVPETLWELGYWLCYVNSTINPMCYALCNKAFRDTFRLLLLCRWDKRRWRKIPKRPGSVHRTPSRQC
# Experiment: muscarinic FLIPR assay: intracellular calcium, potentiation of an EC20 concentration of acetylcholine
# Format: cell-based
# Details: FLIPR Ca2+, 4 min preincubation, then EC20 acetylcholine (3 nM final), read-out: IP Value (inflection point)
# Procedure: The assay studies the effect of one or several concentrations of test compounds on basal or acetylcholine-stimulated Ca^2+ levels using FLIPR.
# Compounds are prepared and subjected to a preincubation period of 4 min. Thereafter, a single EC20 concentration of acetylcholine is added to each well (3 nM final). The intracellular Ca^2+ level of each sample is measured and compared to an acetylcholine control to determine any modulatory activity.
# Cells: CHOnfat/hM1, hM2, hM3 or hM4 cells are plated 24 hr before the assay at a density of 18,000 cells/well (100 μL) in a 384 well plate. CHOnfat/hM1 and CHOnfat/hM3 Growth Medium: 90% DMEM (Hi Glucose); 10% HI FBS; 2 mM L-glutamine; 0.1 mM NEAA; Pen-Strep; and 1 mg/ml Geneticin, are added. For M2Gqi5CHOnfat and M4Gqi5CHOnfat cells, an additional 600 μg/ml hygromycin is added.
# Equipment: 384 well plate, 120 μL addition plate; 96-well Whatman 2 ml Uniplate Incubator, 37° C., 5% CO2; Skatron EMBLA-384 Plate Washer; Multimek Pipetting System; Genesis Freedom 200 System; Mosquito System; Temo Nanolitre Pipetting System; and FLIPR^384 Fluorometric Imaging Plate Reader System are used.
# Buffers. Assay Buffer: Hanks Balanced Salt Solution, with 20 mM Hepes, 2.5 mM Probenecid (Sigma P-8761) first dissolved in 1 N aqueous NaOH, 1% Bovine Serum Albumin (Sigma A-9647). Dye Loading Buffer: Assay Buffer plus 1% Fetal Bovine Serum and Fluo-4AM/Pluronic Acid Mixture. 2 mM Fluo-4AM ester stock in DMSO (Molecular Probes F-14202) Concentration of 2 μM in buffer for a final concentration of 1 μM in Assay. 20% Pluronic Acid Solution stock, with a concentration of 0.04% in Buffer, 0.02% in Assay.
# 65 μL of 2 mM Fluo-4AM are mixed with 130 μL of 20% Pluronic Acid. The resulting solution and 650 μL FBS is added to the assay buffer for a total volume of 65 mL. Positive Controls: 4-Br-A23187: 10 mM in DMSO; final concentration 10 μM. Acetylcholine: 10 mM in water, working stock at both 20 μM and 30 μM in assay buffer, final concentration of 10 μM. This is used to check the maximum stimulation of the CHOK1/hM1 cells. 20 μM (2×) acetylcholine is added in the preincubation part of the assay, and the 30 μM (3×) stock is added in the second part. (EC20)Acetylcholine: 10 mM in water, working stock of 9 nM (3×), and final concentration in assay is 3 nM. This is used after the preincubation with test compounds. Addition of the EC20 Acetylcholine to each well with a test compound will ascertain any modulator activity. 24 wells contain 3 nM Acetylcholine alone as a control.
# Screening Plate: Compounds are titrated in 96-well plates (columns 2-11), 100% DMSO, started at a concentration of 15 mM (150× stock concentration), and 3-fold serial dilutions using Genesis Freedom200 System. Four 96-well plates are combined into a 384-well plate using Mosquito Nanolitre Pipetting System by transferring 1 μl of serial diluted compounds to each well, and 1 mM acetylcholine (100× stock concentration) were added as a control. Using Temo, 49 μl assay buffer is added to each well of the 384-well plate right before assay.
# In a 96-well Whatman 2 ml Uniplate, 9 nM Acetylcholine (3×) is pipetted into wells corresponding to the screening compounds and into control wells. The 30 μM acetylcholine control (3×) is added into control wells and the 3× agonist plate is transferred into a 384-well plate.
# Cells are washed three times with 100 μL of buffer, leaving 30 μL of buffer in each well. Using Multimek, 30 μL of Dye Loading Buffer is added into each well and incubated at 37° C., 5% CO2 for up to one hr.
# After 60 min, the cells are washed three times with 100 μL of buffer, leaving 30 μL of buffer in each well. The cell plate, screening plate, and agonist addition plates are placed on the platform in the FLIPR and the door is closed. A signal test to check background fluorescence and basal fluorescence signal is performed. Laser intensity is adjusted if necessary. […]
row,SMILES,EC50 [nM]
1,O=C(O)c1cn(Cc2ccc(-n3cnc4ccccc43)cc2)c2c(F)ccc(F)c2c1=O [Example 2],58
2,"O=C(O)c1cn(Cc2ccc(N3CCCC3=O)cc2)c2cccc(F)c2c1=O [Example 3, 5-Fluoro-4-oxo-1-[4-(2-oxopyrrolidin-1-yl)benzyl]-1,4-dihydroquinoline-3-carboxylic acid]",2500
3,"CC(C)C(=O)Nc1ccc(Cn2cc(C(=O)O)c(=O)c3c(F)cccc32)cc1 [Example 4, 5-Fluoro-1-[4-(isobutyrylamino)benzyl]-4-oxo-1,4-dihydroquinoline-3-carboxylic acid]",308
4,O=C(O)c1cn(Cc2ccc(-n3ccnc3)cc2)c2cccc(F)c2c1=O [Example 6],102
5,O=C(O)c1cn(Cc2ccc(-n3cc(CCO)cn3)cc2)c2cccc(F)c2c1=O [Example 19],32
6,O=C(O)c1cn(Cc2ccc(-n3ccc4ncccc43)cc2)c2cccc(F)c2c1=O [Example 36],40
7,Cc1nccn1-c1ccc(Cn2cc(C(=O)O)c(=O)c3cccc(F)c32)c(F)c1 [Example 109],181
8,O=C(O)c1cn(Cc2ccc(-n3ncc4ccccc43)cc2F)c2c(F)cccc2c1=O [Example 112],97
9,"CNc1ccc(Cn2cc(C(=O)O)c(=O)c3c(F)cccc32)cc1 [Example 149, 5-Fluoro-1-[4-(methylamino)benzyl]-4-oxo-1,4-dihydroquinoline-3-carboxylic acid]",749
10,"CCOC(=O)c1cn(Cc2ccc(-n3ccc(C(C)O)n3)cc2)c2cccc(F)c2c1=O (centres unmarked) [Example 151, Ethyl 5-fluoro-1-{4-[3-(1-hydroxyethyl)-1H-pyrazol-1-yl]benzyl}-4-oxo-1,4-dihydroquinolin-3-carboxylate]",78
11,"CCOC(=O)c1cn(Cc2ccc(-n3cc(C#N)cn3)cc2)c2cccc(F)c2c1=O [Example 155, Ethyl 1-[4-(4-cyano-1H-pyrazol-1-yl)benzyl]-5-fluoro-4-oxo-1,4-dihydroquinoline-3-carboxylate]",378
12,"C=Cc1cnn(-c2ccc(Cn3cc(C(=O)OCC)c(=O)c4c(F)cccc43)cc2)c1 [Example 156, Ethyl 5-fluoro-4-oxo-1-[4-(4-vinyl-1H-pyrazol-1-yl)benzyl]-1,4-dihydroquinoline-3-carboxylate]",25

# The remaining lines, values ahead:
row,EC50 [nM],SMILES
1,261,O=C(O)c1cn(Cc2ccc(-n3cccn3)cc2)c2c(F)ccc(F)c2c1=O [Example 1]
2,40,O=C(O)c1cn(Cc2ccc(-n3cnc(-c4ccccc4)c3)cc2)c2cccc(F)c2c1=O [Example 31]
3,39,O=C(O)c1cn(Cc2ccc(-n3cc(CO)cn3)cc2)c2cccc(F)c2c1=O [Example 59]
4,31,O=C(O)c1cn(Cc2ccc(-n3cc(CF)cn3)cc2)c2cccc(F)c2c1=O [Example 62]
5,45,CC(=O)c1cn(-c2ccc(Cn3cc(C(=O)O)c(=O)c4cccc(F)c43)c(F)c2)c2ccccc12 [Example 120]
6,1070,"CN(C)c1ccc(Cn2cc(C(=O)O)c(=O)c3c(F)cccc32)cc1 [Example 150, 1-[4-(dimethylamino)benzyl]-5-fluoro-4-oxo-1,4-dihydroquinoline-3-carboxylic acid]"
7,41,"O=C(O)c1cn(Cc2ccc(-n3ccc(CF)n3)cc2)c2cccc(F)c2c1=O [Example 152, 5-Fluoro-1-{4-[3-(fluoromethyl)-1H-pyrazol-1-yl]benzyl}-4-oxo-1,4-dihydroquinoline-3-carboxylic acid]"
8,749,"CCOC(=O)c1cn(Cc2ccc(-n3ccc(C(F)F)n3)cc2)c2cccc(F)c2c1=O [Example 153, Ethyl 1-{4-[3-(difluoromethyl)-1H-pyrazol-1-yl]benzyl}-5-fluoro-4-oxo-1,4-dihydroquinoline-3-carboxylate]"
